Laboratory results taken from patent US8821862B2, “Soluble β-N-acetylglucosaminidase based antibiofilm compositions and uses thereof” (Kane Biotech Inc., priority 2002, dated 2014).

What was measured:
E. coli [1] = experiment: Adhesion assay with coated silicone catheter segments; format: cell-based, Escherichia coli; conditions: silicone catheter coated with TCSN 10 mg/ml alone versus DispersinB 40 μg/ml alone
Description: (§1) The adhesion assay was performed to determine the synergistic effect of DispersinB™ and TCSN combination coated silicone catheters on S. epidermidis and E. coli colonization. The silicone catheter segments (1 cm each) were coated by dipping in DispersinB™ (40 μg/ml) and TCSN (10 mg/ml in 10% Polyethylene glycol) alone and in combination for overnight at 4° C. followed by drying at room temperature. The coated and uncoated segments were incubated in S. epidermidis and E. coli culture in TSB medium at 37° C. for 24 hours at 100 rpm. After 24 hours of incubation, the sections were washed three times gently. Each washed section was transferred into a sterile tube containing 1 ml sterile saline and subjected to sonication for 30 seconds and followed by 1 minute vortexing. Further, it was serially diluted using sterile saline and plated using Tryptic Soy Agar (TSA) plates. The plates were incubated at 37° C. for 24 hours and the colonies (CFU) were counted.

CNS 82 = experiment: MIC, clinical isolates of wound-associated pathogens; format: cell-based, Coagulase-negative staphylococci; conditions: triclosan in the presence of DispersinB 40 μg/ml; clinical isolate CNS 82
Description: (§2) The combined antimicrobial activity of DispersinB™ and triclosan was studied by determining minimal inhibitory concentrations (MIC) in a 96 well microtiter plate. Briefly, serial two-fold dilutions of triclosan and in presence of DispersinB™ (40 μg/ml) were performed in TSB. A suspension of each microorganism from Table 1 was added to wells at a concentration of 5×10^5 CFU/mL, and the microtiter plates were incubated at 37° C. The MIC was defined, as the lowest concentration of an antimicrobial required for total inhibition of a test microorganism at 37° C. Triclosan in combination with DispersinB™ was active against all the pathogens tested.
(§3) The antimicrobial activity of DispersinB™ and triclosan combination was studied by determining the minimal inhibitory concentrations (MIC) in 96 well microtiter plates as described in Example 4. Triclosan in combination with DispersinB™ was active against all the pathogens tested (Table 2).

CNS 42 = experiment: as above; format: cell-based, Coagulase-negative staphylococci; conditions: triclosan in the presence of DispersinB 40 μg/ml; clinical isolate CNS 42
Description: as §2, §3

S. aureus = experiment: MIC in 96 well microtiter plate; format: cell-based; conditions: Staphylococcus aureus, triclosan in the presence of DispersinB 40 μg/ml, 37° C.
Description: as §2

E. faecium = experiment: MIC in 96 well microtiter plate; format: cell-based; conditions: Enterococcus faecium, triclosan in the presence of DispersinB 40 μg/ml, 37° C.
Description: as §2

E. coli [2] = experiment: MIC in 96 well microtiter plate; format: cell-based; conditions: Escherichia coli, triclosan in the presence of DispersinB 40 μg/ml, 37° C.
Description: as §2

S. epidermidis [3] = experiment: MIC in 96 well microtiter plate; format: cell-based; conditions: Staphylococcus epidermidis, triclosan in the presence of DispersinB 40 μg/ml, 37° C.
Description: as §2

Enterobacter cloacae = experiment: MIC in 96 well microtiter plate; format: cell-based; conditions: triclosan in the presence of DispersinB 40 μg/ml, 37° C.
Description: as §2

C. albicans = experiment: MIC in 96 well microtiter plate; format: cell-based; conditions: Candida albicans, triclosan in the presence of DispersinB 40 μg/ml, 37° C.
Description: as §2

P. mirabilis = experiment: MIC in 96 well microtiter plate; format: cell-based; conditions: Proteus mirabilis, triclosan in the presence of DispersinB 40 μg/ml, 37° C.
Description: as §2

K. pneumoniae = experiment: MIC in 96 well microtiter plate; format: cell-based; conditions: Klebsiella pneumoniae, triclosan in the presence of DispersinB 40 μg/ml, 37° C.
Description: as §2

E. faecalis = experiment: MIC in 96 well microtiter plate; format: cell-based; conditions: Enterococcus faecalis, triclosan in the presence of DispersinB 40 μg/ml, 37° C.
Description: as §2

S. epidermidis [4] = experiment: Adhesion assay with coated silicone catheter segments; format: cell-based, Staphylococcus epidermidis; conditions: silicone catheter coated with TCSN 10 mg/ml alone versus DispersinB 40 μg/ml alone
Description: as §1

S. aureus 68 = experiment: MIC, clinical isolates of wound-associated pathogens; format: cell-based; conditions: Staphylococcus aureus; triclosan in the presence of DispersinB 40 μg/ml; clinical isolate S. aureus 68
Description: as §2, §3

S. aureus 120 = experiment: as above; format: cell-based; conditions: Staphylococcus aureus; triclosan in the presence of DispersinB 40 μg/ml; clinical isolate S. aureus 120
Description: as §2, §3

S. aureus Gav 16A = experiment: as above; format: cell-based; conditions: Staphylococcus aureus, GAV16A; triclosan in the presence of DispersinB 40 μg/ml; clinical isolate S. aureus Gav 16A
Description: as §2, §3

[5] = test system: Coagulase-negative staphylococci (CNS 11); experiment: as above; format: cell-based; conditions: triclosan in the presence of DispersinB 40 μg/ml; clinical isolate CNS 11
Description: as §2, §3

## Oc1cc(Cl)ccc1Oc1ccc(Cl)cc1Cl [triclosan]
E. coli [1]
  inhibiting the growth of biofilm-embedded E. coli, coating alone: more effective than DispersinB™
CNS 82
  MIC: < 0.39 µg/mL
CNS 42
  MIC: 0.625 µg/mL
S. aureus
  MIC: < 0.097 µg/mL
E. faecium
  MIC: 12.5 µg/mL
E. coli [2]
  MIC: 6.25 µg/mL
S. epidermidis [3]
  MIC: 3.12 µg/mL
Enterobacter cloacae
  MIC: 25 µg/mL
C. albicans
  MIC: 100 µg/mL
P. mirabilis
  MIC: 12.5 µg/mL
K. pneumoniae
  MIC: 25 µg/mL
E. faecalis
  MIC: 100 µg/mL
S. epidermidis [4]
  inhibiting the growth of biofilm-embedded S. epidermidis, coating alone: more effective than DispersinB™
S. aureus 68
  MIC: < 0.39 µg/mL
S. aureus 120
  MIC: < 0.39 µg/mL
S. aureus Gav 16A
  MIC: < 0.39 µg/mL
[5]
  MIC: 25 µg/mL
